Results reported in ChEMBL document CHEMBL1149739, “Sarcochromenol sulfates A-C and sarcohydroquinone sulfates A-C, new natural products from the sponge Sarcotragus spinulosus” (J Nat Prod, 1992).
Structures can show the parent of a compound that is named as a salt.

Assay: Inhibition of rat brain Na(+)/K(+) ATPase

IC50 [nM]	Structure (SMILES)
1600	CC(C)=CCC/C(C)=C/CC/C(C)=C/CC/C(C)=C/CC/C(C)=C/CCC1(C)C=Cc2cc(OS(=O)(=O)O)ccc2O1 (configuration not stated) [SODIUM SARCOCHROMENOL SULFATE A]
1400	CC(C)=CCC/C(C)=C/CC/C(C)=C/CC/C(C)=C/CC/C(C)=C/CC/C(C)=C/CC/C(C)=C/Cc1cc(OS(=O)(=O)O)ccc1OS(=O)(=O)O [DISODIUM SARCOHYDROQUINONE SULFATE B]
